Test [1] concerns HeLa cells. The experiment in a line: Cellular ROS assay (ROS deep red fluorescence kit). The format is cell-based. The settings on record: pretreatment 50, 100, 150 μM for 24 h; 5 mM H2O2 30 min. How it is done:
ROS is the main contributor to cell death. These reactive molecules are formed by several mechanisms and can be detected by various techniques. In order to investigate the level of cellular ROS after treatment with compounds, the accumulation of intracellular ROS in cells was quantified with a cellular ROS assay kit (ab186029, Abcam, Boston, USA) fluorescence assay. After pretreatment with 2f, 2j, and 3i at 50, 100, and 150 μM for 24 h, cell stress was induced with 5 mM hydrogen peroxide for 30 min. The cells in each well were collected and resuspended with a serum-free medium containing the ROS red probe. Subsequently, cells were incubated at 37 °C for 30 min in the dark, and fluorescence was read at Ex/Em = 650/675 nm.
In this study, Hela cells were seeded overnight at 20,000 cells/90 µL/well in a black wall/clear bottom 96-well plate. Cells included those untreated (control) and those pre-treated with compounds at various concentrations (50, 100, 150 μM) for 24 h. The ROS deep red assay solution (100 μL/well) was added and incubated at 5% CO2, 37 °C incubator for 30 min. The fluorescence signal was monitored at Ex/Em = 650/675 nm (cut off = 665 nm) with bottom read mode within 30 min (cellular ROS assay kit, ab186029, abcam).

The test system of test [2] is HeLa cells. The experiment in a line: Apoptosis, Annexin V & Dead Cell flow cytometry. Type of test: cell-based. The following applies: IC50 concentration, 24 h. How it is done:
Examining apoptosis induction by some samples was confirmed by the determination of annexin V (p ≤ 0.05) using the IC50 for 2b, 2e, 2f, 2j, and quercetin in the HeLa cell line (Figure 5a).
HeLa cells were seeded overnight at 1 × 10^5 cells/1.5 mL/well in a 6-well plate. […] The cells were […] and washed with PBS. The collected cells were diluted with serum-free medium to a suitable volume. The 100 μL of cell suspension was added to 100 μL of Muse^TM Annexin V & Dead Cell reagent and incubated for 20 min at room temperature. Cells were analyzed by flow cytometry (Guava Muse Cell Analyzer, Luminex, Austin, TX USA) with Guava suite software 3.4.

Consider two compounds from PMC10096453, “One-Pot Synthesis and Evaluation of Antioxidative Stress and Anticancer Properties of an Active Chromone Derivative” (Molecules, 2023).

Molecules are shown by their SMILES.

Take `O=C(c1ccccc1)c1c(-c2ccccc2)oc2c(O)c(O)ccc2c1=O` [2f, 3-Benzoyl-7,8-dihydroxy-2-phenyl-4H-chromen-4-one]: the “Cellular ROS fluorescence intensity vs H2O2-treated cells” value in test [1] is “significantly reduced”. In addition, in test [2], the “Apoptosis induction” value is recorded as “induced apoptosis in tumor cells”, the “Change in dead phase compared to the control” value is given as “+5.8%”, the “Change in early apoptosis phase compared to the control” value is “+6.3%” and the “Change in late apoptosis phase compared to the control” value was “+1.2%”. The “Change in live phase compared to the control” value in test [2] is given as −12.1%.

For `O=C(Oc1ccc2c(=O)c(C(=O)c3ccccc3)c(-c3ccccc3)oc2c1O)c1ccccc1` [2j, 3-Benzoyl-8-hydroxy-4-oxo-2-phenyl-4H-chromen-7-yl benzoate], the “Cellular ROS fluorescence intensity vs H2O2-treated cells” value in test [1] is “significantly reduced”.
